Assays:
[1] = TEM, cryo-TEM and AFM of the self-assembled micro-nano structure; format: physicochemical
Experimental: Taking the self-assembled micro-nano structure of Compound II-1 as an example, II-1 was dissolved in DMSO (also can be an organic solvent such as ethanol) to prepare a 2 mM storage solution, and a small amount of storage solution was added to deionized water to prepare 20 μM working solution. Took 10 μL and dropped it on copper mesh, observed and analyzed under transmission electron microscope (TEM), cryo-transmission electron microscope. Took 10 μL and dropped it on mica plate, observed and analyzed under atomic force microscope (AFM). In FIGS. 5, A, B, C and D were TEM photographs, cryo-transmission electron microscope photographs, AFM photographs, and AFM analysis data, respectively. According to the photographs and data, II-1 was self-assembled into nanosheets with a diameter of 40-70 nm and a thickness of 3.7-3.9 nm. […]

[2] = Photothermal effect in vitro under 808 nm laser irradiation; format: physicochemical; details: for light-to-heat conversion efficiency: 808 nm laser; for temperature raised by / temperature reached: 808 nm laser 5 minutes; for temperature reached: from room temperature 30° C.
Experimental: A total of 4 groups of samples, 3 mL was taken and added to a cuvette respectively, and the lid was sealed.
The sample No. 2 was 10 μM II-1, and the specific preparation method is 3 mL deionized water plus 15 μL II-1 stock solution (2 mM, dissolved in DMSO);
The sample No. 3 was 20 μM II-1, and the specific preparation method was that 3 mL deionized water was added 30 μL II-1 stock solution (2 mM, dissolved in DMSO);
The sample No. 4 was 40 μM II-1, and the specific preparation method was that 3 mL deionized water was added 60 μL II-1 stock solution (2 mM, dissolved in DMSO).
Each sample was irradiated with an 808 nm laser for 5 minutes, and the temperature data was recorded every 5 seconds with a thermal imager, and the temperature corresponding to the time was plotted in origin, as shown in the left figure of FIG. 8. […] The temperature of sample No. 2 increased from room temperature 30° C. to 54° C., and the temperature was raised by 24° C. The temperature of sample No. 3 increased from room temperature 30° C. to 62° C., and the temperature was raised by 32° C. The temperature of sample No. 4 increased from room temperature 30° C. to 77° C., and the temperature was raised by 47° C.
Using a method similar to Example 8, 10 μM, 20 μM and 40 μM samples of II-16, II-17 and II-18 were prepared, respectively, they were irradiated under an 808 nm (2.6 W/cm-2) laser for 10 minutes. 40 μM II-16 to 18 samples can rise by 40° C., 36° C. and 18° C. respectively within 10 minutes under laser irradiation.
Using a method similar to that in Example 8, three samples of 20 μM of 1-16, II-17 and II-18 in water were irradiated with 808 nm (2.6 W/cm-2) laser for 10 minutes, and the light-to-heat conversion efficiency calculation result thereof were shown in FIG. 10. […] And II-18 not only has poor light-heat effect, but also has low light-heat conversion efficiency, only 12.9%.

HeLa cells = assay: Cell photothermal experiment; format: cell-based
Experimental: HeLa cells were digested from the culture flask with trypsin, centrifuged, added to a DMEM medium containing 10% serum and 1% double antibody, and mixed well. 20 μL of cells were taken and stained with Compound II-1 (20 μM) for 30 minutes. After taking it out, it was centrifuged and rinsed twice with PBS. After centrifuging, 20 μL of culture medium and 20 μL of trypan blue were added. 20 μL was taken from the mixture to the cell count plate and photographed under fluorescence microscope. In the absence of laser irradiation, bright live cells were observed under the microscope, and the cell survival rate was 92%. When irradiated with 808 nm laser for 6 minutes, almost all the blue dead cells were observed under the microscope, and the cell death rate was as high as 100%. HeLa cells were cultured in 96-well plates, 10^4 cells per well, and live/dead staining after 24 h. The cells were irradiated with an 808 nm laser for 6 minutes, and the photographs were observed under a fluorescent microscope. […] It can be seen that the toxicity of the compound itself is extremely small, but its photothermal effect is particularly lethal to cancer cells, and it has bright prospects in the future clinical application of photothermal treatment of cancer. Other compounds of the present invention also have similar photothermal therapeutic effects.

4T1 cells [3] = assay: Fluorescence imaging in subcutaneous metastasis model mice; format: in vivo, nude mice; details: 200 μL (1 mg/mL) tail vein
Experimental: The left side of 6-week-old female nude mice was injected subcutaneously with […] 4T1 cells to grow the tumor volume to 60 mm^3.
In the experimental group, 200 μL of II-1 (1 mg/mL) was injected into the tail vein of mice. After injection, the living imager was used to monitor at different times. […] Then they were dissected, and the heart, liver, spleen, lung, kidney and tumor were imaged by fluorescence. […] This proves that Compound II-1 targets the tumor site very well.

4T1 cells [4] = assay: Photothermal imaging and photothermal treatment in subcutaneous metastasis model mice; format: in vivo, nude mice
Experimental: In the experimental group, 200 μL of II-1 (300 μmoL) was injected into the mouse through the tail vein, and the tumor site of the mouse was irradiated with an 808 nm laser for 10 minutes, while taking photos with a photothermal imaging instrument.
The nude mice were divided into 4 groups. In the first group, 200 μL of II-1 was injected into the mouse through the tail vein, and the tumor site of the mouse was irradiated with an 808 nm laser for 5 minutes. In the second group, 200 μL of II-1 (300 μmol) was injected, no laser irradiation. In the third group, saline was injected and laser irradiated for 5 minutes. In the fourth group, saline was injected, no laser irradiation. The tumor volume of each group of mice was measured daily with a vernier caliper, and the recording was continued for 30 days.

[5] = Photoacoustic imaging test in aqueous solution; format: physicochemical; details: 5, 10, 20 and 40 μM in water
Experimental: In the experimental group, 2.5, 5, 10 and 20 μL of Compound II-1 (concentrations of 5, 10, 20 and 40 μM, respectively) were respectively added to 1 mL of water, and the test solution was placed in the prosthesis for photoacoustic imaging test.

[6] = 20 μM in deionized water, TEM/AFM
[7] = sample No. 2, 10 μM in deionized water
[8] = sample No. 3, 20 μM in deionized water
[9] = sample No. 4, 40 μM in deionized water
[10] = Group 1: 200 μL tail vein, 808 nm laser 5 minutes
[11] = experimental group, 20 days after the experiment

## CCN1C(=CC=C2CCCC(C=CC3=C(C#N)C(=C(C#N)C#N)OC3(C)C)=C2Cl)C(C)(C)c2ccccc21 [II-1]
[1]; [6]
  nanosheet diameter: 40-70 nm
  nanosheet thickness: 3.7-3.9 nm
[1]; micro-nano structure in aqueous solution, AFM and TEM
  Morphology: nano-sheet
[2]; [7]
  light-to-heat conversion efficiency: 60.4%
  temperature raised by: 24 °C
[2]; sample No. 2, 10 μM
  temperature reached: 54 °C
[2]; [8]
  light-to-heat conversion efficiency: 61%
  temperature raised by: 32 °C
[2]; sample No. 3, 20 μM
  temperature reached: 62 °C
[2]; [9]
  light-to-heat conversion efficiency: 60%
  temperature raised by: 47 °C
[2]; sample No. 4, 40 μM
  temperature reached: 77 °C
HeLa cells; HeLa in 96-well plates, 808 nm laser 6 minutes
  dead cells, live/dead staining: 100%
HeLa cells; HeLa in 96-well plates, only the compound added, without laser irradiation
  live/dead staining, compound only: the cells were all alive
HeLa cells; HeLa, 20 μM for 30 minutes, 808 nm laser 6 minutes, trypan blue
  cell death rate: 100%
HeLa cells; HeLa, 20 μM for 30 minutes, no laser irradiation, trypan blue
  cell survival rate: 92%
4T1 cells [3]; after 24 hours
  whole-body fluorescence distribution: all enriched in the tumor site
4T1 cells [3]; dissected after 24 hours
  fluorescence of dissected heart, liver, spleen, lung, kidney and tumor: the fluorescence was very strong at tumor site, with weak fluorescence in the liver, and no fluorescence in other parts
4T1 cells [3]; within 24 hours
  abnormalities in nude mice: no abnormalities such as spasms and convulsions occurred
4T1 cells [4]; 200 μL (300 μmoL) tail vein, 808 nm laser 10 minutes
  temperature of tumor site under laser irradiation: 60 °C
4T1 cells [4]; [10]
  day on which the tumor ulcer had completely healed: 16 days
  tumor after photothermal treatment: the tumor disappeared after laser irradiation, and there was no recurrence within 20 days
4T1 cells [4]; experimental group and control group
  body weight: no abnormal change in the body weight
4T1 cells [4]; [11]
  H&E staining of lung and liver: no obvious damage to the lungs and liver
  H&E staining of tumor: the tumor cells had undergone apoptosis
4T1 cells [4]; group 2: 200 μL (300 μmol), no laser irradiation (stated for control groups 2, 3 and 4 together), in 20 days
  growth of tumor volume: 25 times
[5]
  photoacoustic signal against concentration: the photoacoustic signal increased with the increase of the concentration of Compound II-1
  wavelength of the strongest photoacoustic signal: 710-750 nm

— patent publication US20220105183A1, “MICRO-NANO STRUCTURE FORMED BY SELF-ASSEMBLING ORGANIC SMALL MOLECULE COMPOUND AND USE THEREOF” (Qingdao University of Science and Technology, priority 2018, published 2022)
